Test system: cardiac myocytes of acutely explanted rabbit heart
Assay: Adenovirus gene transfer in Langendorff-perfused explanted rabbit heart; β-galactosidase staining of isolated myocytes
Description: Adenovirus vectors. Adβgal contained the E. coli lac Z gene driven by the human cytomegalovirus (CMV) immediate early promoter. Virus stocks were expanded as previously described in Graham F L, Prevec L: Manipulation of adenovirus vectors, in Murray E J (ed): Methods in molecular biology. Clifton, N.J., Humana, 1991, pp 109-128, aliquoted in small volumes, and stored in phosphate-buffered saline (PBS) with 10% sucrose at −80° C. Viral titers were determined by the average of two plaque assays performed using a traditional method as described in Methods in molecular biology, supra.
Statistical Analysis. Unless otherwise stated, all experiments were performed in triplicate and the data are presented as mean ±s.d. Statistical significance was determined at the 5% level using the unpaired Student's t-test.
Baseline conditions for the Langendorff-perfusion experiments included a coronary flow rate of 30 ml/min, and perfusion with Krebs solution containing 1.0 mmol/L Ca^2+ and 1.0×10^8 pfu/ml of Adβgal at 37° C. All infections occurred in Krebs solution.
Acutely explanted rabbit heart (New Zealand White; 2-3 kg total body weight) were employed for gene transfer tests of this Example 1 and the following Example 2. The rabbits received heparin anticoagulation (1000 units IV) prior to pentobarbital (50 mg/kg IV). […]

## NCCc1c[nH]c2ccc(O)cc12 [serotonin]
Agent perfused to enhance microvascular permeability, versus baseline
  change in percentage of infected myocytes by supplemental agent: significant increase
Pretreatment 500 ml normal Krebs with 10^-5 M agent over 15 minutes, agent also present during Adβgal infection
  percentage of infected myocytes: 77.8±2.3%

— patent US7256182B2, “Gene delivery compositions and methods” (priority 1997, dated 2007)
